US20260250318A1, “COMPOSITIONS AND METHODS FOR CROSSING THE BLOOD BRAIN BARRIER” (VOYAGER THERAPEUTICS, INC., priority 2022, published 2026)

Legend:
Conditions in all cases: synthetic library passage 3, intravenous, relative to wild-type AAV9
brain [1] = assay: NGS fold enrichment of synthetic library (passage 3) in BALB/c mice, first cross-species screen; format: in vivo
In short: (§1)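 Passage-3 synthetic capsid library given intravenously […] to NHPs (2-4 years) and BALB/c or C57Bl/6 mice (n=3, 6-8 weeks). After e.g. 28 days, tissue RNA was RT-PCR amplified and NGS-sequenced; values are fold enrichment of each variant relative to wild-type AAV9.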

brain [2] = assay: NGS fold enrichment of synthetic library (passage 3) in C57Bl/6 mice, first cross-species screen; format: in vivo
In short: as §1

[3] = system: brain, spinal cord, and DRG of the NHPs; assay: NGS fold enrichment of synthetic library (passage 3) in NHPs, first cross-species screen; format: in vivo, cynomolgus macaques (Macaca fascicularis)
In short: as §1

[4] = RNA from brain of BALB/c mice, NGS
[5] = RNA from brain of C57Bl/6 mice, NGS
[6] = RNA from spinal cord of NHPs, NGS

| Sequence | Fold enrichment over AAV9 in the brain of Mice (BALB/c) (brain [1]; RNA NGS, brain of BALB/c mice) | Fold enrichment over AAV9 in the brain of Mice (C57Bl/6) (brain [2]; RNA NGS, brain of C57Bl/6 mice) | Fold enrichment over AAV9 in the brain of NHPs ([3]; RNA NGS, brain of NHPs) | Fold enrichment over AAV9 in the spinal cord of NHPs ([3]; RNA NGS, spinal cord of NHPs) | Fold enrichment over AAV9 in the brain of Mice (BALB/c) (brain [1]; [4]) | Fold enrichment over AAV9 in the brain of Mice (C57Bl/6) (brain [2]; [5]) | Fold enrichment over AAV9 in the brain of NHPs ([3]; RNA from brain of NHPs, NGS) | Fold enrichment over AAV9 in the spinal cord of NHPs [3, 6] |
| --- | --- | --- | --- | --- | --- | --- | --- | --- |
| GSEYGHKSGQNQQT | 5.332 fold | 5.198 fold | 6.308 fold | 2.750 fold | – | – | – | – |
| GSGLRQTSQQNQQT | 0.705 fold | 0.978 fold | 1.537 fold | 2.067 fold | – | – | – | – |
| GSGPWSAGLQNQQT | 0.539 fold | 0.700 fold | 1.067 fold | 0.947 fold | – | – | – | – |
| GSGQVVAHVGNQQT | 0.321 fold | 0.800 fold | 1.901 fold | 0.833 fold | – | – | – | – |
| GSGLSVQSGQNQQT | 1.005 fold | 1.695 fold | 2.637 fold | 2.929 fold | – | – | – | – |
| GSFSMGYGGQNQQT | – | – | – | – | 1.030 fold | 1.908 fold | 1.393 fold | 18.476 fold |
| GSGKNQTPIPKGQT | – | – | – | – | 1.154 fold | 1.306 fold | 1.339 fold | 5.077 fold |
| GSGQNQQTGQATHN | 0.527 fold | 0.877 fold | 0.996 fold | 2.199 fold | – | – | – | – |
| GSGQLIASVVNQQT | 0.359 fold | 0.197 fold | 1.005 fold | 0.086 fold | – | – | – | – |
| GLAHKTSSGQNQQT | 0.690 fold | 0.427 fold | 1.106 fold | 0.915 fold | – | – | – | – |
| GVHTHLPSGQNQQT | 0.796 fold | 1.414 fold | 1.952 fold | 1.364 fold | – | – | – | – |
| GHMKGVTSGQNQQT | 0.413 fold | 0.807 fold | 1.081 fold | 2.814 fold | – | – | – | – |
| GSGFHTDSRQNQQT | 0.575 fold | 7.344 fold | 1.748 fold | 4.384 fold | – | – | – | – |
| GSGQNKQMLSGNTT | – | – | – | – | 0.404 fold | 1.074 fold | 1.410 fold | 2.219 fold |
| GSGHSVSGPQNQQT | 0.619 fold | 1.370 fold | 1.993 fold | 6.259 fold | – | – | – | – |
| GSGQNQQMAGAFRT | 0.762 fold | 1.307 fold | 1.003 fold | 1.784 fold | – | – | – | – |

| Sequence | Fold enrichment over AAV9 in the brain of Mice (BALB/c) (brain [1]; RNA NGS, brain of BALB/c mice) | Fold enrichment over AAV9 in the brain of Mice (C57Bl/6) (brain [2]; RNA NGS, brain of C57Bl/6 mice) | Fold enrichment over AAV9 in the brain of NHPs ([3]; RNA NGS, brain of NHPs) | Fold enrichment over AAV9 in the spinal cord of NHPs ([3]; RNA NGS, spinal cord of NHPs) | Fold enrichment over AAV9 in the brain of Mice (BALB/c) (brain [1]; [4]) | Fold enrichment over AAV9 in the brain of Mice (C57Bl/6) (brain [2]; [5]) | Fold enrichment over AAV9 in the brain of NHPs ([3]; RNA from brain of NHPs, NGS) | Fold enrichment over AAV9 in the spinal cord of NHPs [3, 6] |
| --- | --- | --- | --- | --- | --- | --- | --- | --- |
| GSGQNQQTTSSNMT | 0.698 fold | 0.638 fold | 1.099 fold | 0.569 fold | – | – | – | – |
| GSGQNRAQSRFQQT | 1.788 fold | 0.619 fold | 3.043 fold | 0.000 fold | – | – | – | – |
| GNYLHQASGQNQQT | 0.181 fold | 0.816 fold | 1.635 fold | 1.454 fold | – | – | – | – |
| GSSHRFYGGQNQQT | 0.110 fold | 0.787 fold | 4.732 fold | 0.000 fold | – | – | – | – |
| GIILGASSGQNQQT | 0.865 fold | 1.378 fold | 3.630 fold | 4.868 fold | – | – | – | – |
| GSGQNQQVAGLNNT | – | – | – | – | 0.492 fold | 0.449 fold | 1.386 fold | 3.218 fold |
| GSGLSHSHQQNQQT | 0.592 fold | 1.256 fold | 2.109 fold | 5.852 fold | – | – | – | – |
| GSGYVITGSQNQQT | – | – | – | – | 0.248 fold | 0.971 fold | 1.125 fold | 6.271 fold |
| GSGQNQQIPHVHQT | – | – | – | – | 0.218 fold | 0.576 fold | 1.409 fold | 0.768 fold |
| GSGQNQQTSPHNHT | 0.845 fold | 1.524 fold | 2.761 fold | 3.132 fold | – | – | – | – |
| GSGQNQQSLSGSFT | 0.883 fold | 0.745 fold | 1.105 fold | 0.735 fold | – | – | – | – |
| GSGQNQHHSVSQQT | 0.334 fold | 0.605 fold | 1.623 fold | 3.700 fold | – | – | – | – |
| GSGQNQQALHNPHT | 0.213 fold | 0.638 fold | 1.553 fold | 0.664 fold | – | – | – | – |
| GSGQNRAQIGTQQT | – | – | – | – | 0.654 fold | 0.776 fold | 1.138 fold | 0.469 fold |
| GSGQNAHAKEGQQT | 1.179 fold | 0.875 fold | 1.108 fold | 0.000 fold | – | – | – | – |
| GSGQNTGQHMMQQT | 0.917 fold | 1.147 fold | 1.090 fold | 1.058 fold | – | – | – | – |
